Test results from US4908441A, “Deoxyadenosine compounds and methods of making and using the same” (Warner-Lambert Company, priority 1988, dated 1990).
Converted amounts (≈) assume the structure as drawn.

How the values were obtained:
Colon 08 = test: tumor growth delay assay, Colon 08; assay type: in vivo, mouse (CD2F1 hybrid); parameters: key to Rating: Tx: Toxic; ++++: High Activity; +++: Marked Activity; ++: Moderate Activity; +: Slight Activity; -: Inactive; UT: Unsatisfactory Test; settings: 15 mg/kg (dose of greatest activity), IP
Experimental: (§1) A test protocol to show activity of the compounds of the present invention against solid tumors was that described below, for example, in inhibiting the growth of colon tumors.
(§2) The tumor growth delay assay assesses the antitumor activity of a test agent by measurement of the treatment-induced delay of tumor growth.
(§3) Test animals were CD2F1 hybrid mice derived from the inbred strain of tumor origin. After the required mice were randomized they received 30-50 mg subcutaneous implants of either colon 36 or colon 8 by trocar on Day 0. Samples of each donor tumor were incubated in thioglycolate media as a check for contamination of the tumor material. After tumor inoculation mice were rerandomized and distributed at 10 mice per treatment group (20 for control).
(§4) Drug treatment was initiated when tumors reached measurement in two dimensions by the formula:
(§5) tumor weight (mg)=(a+b^2)
(§6) where a and b are the tumor length and width, respectively. Drug, suspended in methyl-cellulose, was administered intraperitoneally Q4HX3 for nine consecutive days in a range of toxic to nontoxic doses. Tumor-bearing control groups were injected with methyl-cellulose. Animal survival was monitored daily. Tumors were measured twice weekly and animal weights recorded on a weekly basis. All dead mice were autopsied to determine the cause of death (drug or tumor). Any mouse bearing a tumor larger than the smallest lethal control tumor for two consecutive measurements was sacrificed, provided that greater than 25 days had elapsed since last treatment. Any tumor-free mouse was retained long enough so that a single surviving tumor cell at last treatment could grow to an unmistakable subcutaneous tumor.
(§7) T/C was calculated based on the difference in days required for the treated (T) and control (C) groups to reach an evaluation size of 1000 mg. Gross and net logs of cell kill were determined based on standard methodologies. The degree of activity or rating is a function of cell kill. Activity is defined in accordance with the standard methodologies as follows: […]

L1210 leukemia cells = test: in vivo assay for antileukemic activity (median lifespan); parameters: species or system mouse (male CD2 F1); key to % T/C Animals (1): Tx = Toxic; settings: IP once daily Days 3-7
Experimental: Another test protocol is the in vivo assay for antileukemic activity. This assay is carried out with male CD2 F1 mice (six per treatment group) that weigh 22-24 grams at first treatment. L1210 leukemia cells are harvested from the peritoneal ascites fluid of a leukemic male DBA2 mouse and diluted with sterile 0.9% saline containing 2.1% W/V bovine serum albumin, 2000 U/ml penicillin, and 0.3 mg/ml streptomycin. The cells are counted with a Coulter counter. The mice are randomized, inoculated with 10^4 L1210 cells (0.5 ml, IP), and rerandomized to treatment or control groups on Day 0. The test compound is dissolved in 10% aqueous dimethylsulfoxide. Treatment groups are injected IP with 0.5 ml of freshly made DMSO solutions of the test compound once daily on Days 3-7. Control mice are treated with 0.5 ml 10% dimethylsulfoxide. All mice are weighed on Days 3 and 7 and all dying mice are autopsied to confirm the presence of advanced leukemia. A % T/C value [T/C computed as (median lifespan of the treated group/median lifespan of the control group)] greater than 125 is considered as showing significant activity. The results for nucleotide compounds and compositions of the invention exemplified by 3'-acetyl-2-chloro-2'-deoxy-5'-adenylic acid, monosodium salt, are presented in Table I.

Colon 36 = test: tumor growth delay assay, Colon 36; assay type: in vivo, mouse (CD2F1 hybrid); parameters: key to Rating: Tx: Toxic; ++++: High Activity; +++: Marked Activity; ++: Moderate Activity; +: Slight Activity; -: Inactive; UT: Unsatisfactory Test; settings: 9.5 mg/kg (dose of greatest activity), IP
Experimental: as §1, §2, §3, §4, §5, §6, §7

[1] = mammals and Phase 1 clinical trial in patients; Carson et al. 1984; cited from earlier work
water solubility = assay type: physicochemical
[2] = difference in days to reach 1000 mg

| SMILES | Rating (Colon 08) | T/C (Colon 08; [2]) | Net Kill (Colon 08; net logs of cell kill) | % T/C Animals (1) (L1210 leukemia cells; 48 mg/kg, >125 significant) | % T/C Animals (2) (L1210 leukemia cells; 48 mg/kg, >125 significant) | % T/C Animals (1) (L1210 leukemia cells; 77 mg/kg, >125 significant) | % T/C Animals (2) (L1210 leukemia cells; 77 mg/kg, >125 significant) | % T/C Animals (1) (L1210 leukemia cells; 124 mg/kg) | % T/C Animals (2) (L1210 leukemia cells; 124 mg/kg, >125 significant) | % T/C Animals (1) (L1210 leukemia cells; 200 mg/kg) | Rating (Colon 36) | T/C (Colon 36; [2]) | Net Kill (Colon 36; net logs of cell kill) | antileukemic and immunosuppressive activity [1] | water solubility (in words) (water solubility) | solubility (water solubility; in water) |
| --- | --- | --- | --- | --- | --- | --- | --- | --- | --- | --- | --- | --- | --- | --- | --- | --- |
| CC(=O)O[C@H]1C[C@H](n2cnc3c(N)nc(Cl)nc32)O[C@@H]1COP(=O)([O-])O.O.[Na+] [Example 1, 2-Chloro-2'-deoxy-5'-adenylic Acid, 3'-acetate, Monosodium Salt, Monohydrate] | + | 12.9 | 0.4 | 124% | 149% | 126% | 112% | Tx | 87% | Tx | ++ | 14.0 | 0.6 | – | – | – |
| Nc1nc(Cl)nc2c1ncn2[C@H]1C[C@H](O)[C@@H](CO)O1 [2-chloro-2'-deoxyadenosine] | – | – | – | – | – | – | – | – | – | – | – | – | – | antileukemic and immunosuppressive activity | sparingly soluble in water | ~1 mg/mL (≈ 3.5 mM) |
